Laboratory results taken from article PMC9575645 (Signal Transduction and Targeted Therapy, 2022).

Assays:
Vero E6 = assay: Cytotoxicity, MTT assay, Vero E6; type: cell-based, African green monkey
Method: (§1) The cytotoxic effects of the chemicals and their solvents were tested by the MTT assay,[44] and its procedure is described in Supplementary Information.
(§2) The cytotoxic effects of the chemicals and their solvents used were tested by the MTT assay as described previously.^10 In brief, the chemicals were dissolved in DMSO to a stock concentration of 10 mM, and then freshly serially diluted in serum-free medium before being added to cell culture monolayers. The absorbance was measured using an enzyme-linked immunosorbent assay (ELISA) reader at an optical density (OD) of 570 nm. The percent cell viability was calculated using the following formula, [(ODsample˗ODblank)/(ODcontrol˗ODblank)] × 100%. According to the cell cytotoxicity data, dose-response curves were generated for the calculation of CC50 using GraphPad Prism software version 8.4.2.

[1] = test system: Influenza A virus (H1N1) (PR8); conditions: for SI (CC50/IC50) / IC50: Influenza A virus (H1N1) (PR8); for IC50: A549 cells
LLC-PK = assay: Cytotoxicity, MTT assay, LLC-PK; type: cell-based, porcine
Method: as §1, §2

[2] = In vivo toxicity in mice (body weight, gross and histopathological organ changes); conditions: for gross and histopathological changes in major organs (liver, lung, kidney, heart, spleen): 0.1, 1, or 10 mg kg^-1 d^-1 Bid for 4 consecutive days
MDCK = assay: Cytotoxicity, MTT assay, MDCK; type: cell-based, canine
Method: as §1, §2

SARS-CoV-2 (KCDC03) = assay: In vitro antiviral activity against SARS-CoV-2 in Vero E6 cells (CCIF viral yield, RT-qPCR); type: cell-based; conditions: for SI (CC50/IC50) / IC50: SARS-CoV-2 (KCDC03); for IC50: Vero E6 cells; for virus replication (genome copy number, infectious progeny): SARS-CoV-2-infected Vero E6, 20 µM at 18 hpi
[3] = test system: proinflammatory cytokines; assay: Proinflammatory cytokines in IAV-infected A549 cells (RT-qPCR, ELISA); type: cell-based, human; conditions: 20 μM
SARS-CoV-2 S protein = type: cell-based
MA104 = assay: Cytotoxicity, MTT assay, MA104; type: cell-based, African green monkey
Method: as §1, §2

lipid droplets (LDs) = assay: BODIPY lipid droplet immunofluorescence in SARS-CoV-2-infected Vero E6 cells; type: cell-based, African green monkey; conditions: SARS-CoV-2-infected cells, MOI = 0.1 FFU; 20 µM
Method: To characterize the dynamics of LD formation, apoptotic and necroptotic cells, and virus infectivity, an IFA was performed with the […], MDCK, Caco-2, Vero E6, MA104, MARC-145, LLC-PK, and HRT-18G cells, infected with or without each virus, and treated with vehicles or chemicals at the different time points (Table S3), or transfected with siRNA or scrambled siRNA as described above.^ 16^,27^,28 Briefly, cells were prepared in 8-well chamber slides infected with IAV, SARS-CoV-2, BCoV, PEDV, RVA, PRRSV, or PSaV at an MOI of 1 (IAV), or MOI of 0.1 (SARS-CoV-2, BCoV, PEDV, RVA, PRRSV, or PSaV) and treated with or without chemicals. […] Subsequently, cells were washed thrice with PBS (pH 7.4) and mounted with SlowFade Gold antifade reagent containing 1 × DAPI solution (Molecular Probes) for nucleus staining, observed with a LSM 800 confocal microscope, and analysed using Zen Blue Software 2.6 (Carl Zeiss; Jena, Germany).
The number and size of intracellular LDs were measured as described previously.^28 Briefly, four images were taken of each sample and converted into a pixel unit, and the data were processed and quantified using Adobe Photoshop CS6. […] The results were expressed as relative values, where the average number and size of pixels of positive color in virus-infected groups were normalized to those of the mock-treated, mock-infected control.

MARC = assay: Cytotoxicity, MTT assay, MARC; type: cell-based, African green monkey
Method: as §1, §2

[4] = test system: Porcine sapovirus (Cowden); conditions: for IC50: Porcine sapovirus (Cowden), LLC-PK cells
IAV HA and M2 proteins = type: cell-based, Influenza A virus
A549 = assay: Cytotoxicity, MTT assay, A549; type: cell-based, human
Method: as §1, §2

SMILES | CC50 (Vero E6) | virus replication (genome copy number, infectious progeny) [1] | SI (CC50/IC50) [1] | IC50 [1] | CC50 (LLC-PK) | gross and histopathological changes in major organs (liver, lung, kidney, heart, spleen) [2] | overt signs of toxicity, including loss of body weight ([2]; intraperitoneal 10 mg kg^-1 d^-1) | CC50 (MDCK) | SI (CC50/IC50) (SARS-CoV-2 (KCDC03)) | IC50 (SARS-CoV-2 (KCDC03)) | virus replication (genome copy number, infectious progeny) (SARS-CoV-2 (KCDC03)) | proinflammatory cytokines IFN-α, IFN-β, TNF-α, IL-6, MCP-1 [3] | palmitoylation of the SARS-CoV-2 spike (S) protein (SARS-CoV-2 S protein) | CC50 (MA104) | intracellular LDs (BODIPY) (lipid droplets (LDs)) | CC50 (MARC) | SI (CC50/IC50) [4] | IC50 [4] | palmitoylation of IAV HA and M2 proteins (IAV HA and M2 proteins) | CC50 (A549)
CN(C)C(=O)Nc1cccc(-c2ccc(N(C)C)cc2)c1 [Atglistatin] | 226 ± 2.4 µM | inhibiting the replication | 251 | 0.82 ± 0.08 µM | 224 ± 2.3 µM | no gross and histopathological changes | did not induce any overt signs of toxicity | 269 ± 3.2 µM | 154 | 1.47 ± 0.12 µM | inhibiting the replication | significantly reduced | significantly inhibited | 214.5 ± 2 µM | Retention of LDs | 212 ± 3.5 µM | 72 | 3.11 ± 0.39 µM | significantly inhibited | 206 ± 3 µM
COc1nn(-c2ccc(NC(=O)OCc3ccccc3)c(C)c2)c(=O)o1 [CAY10499] | 102 ± 8.3 µM | inhibiting the replication | 27 | 4.13 ± 0.46 µM | 109 ± 8.1 µM | no gross and histopathological changes |  | 110 ± 4.1 µM | 62 | 1.54 ± 0.18 µM | inhibiting the replication | significantly reduced | significantly inhibited | 107 ± 5.6 µM | Retention of LDs | 101 ± 4 µM | 9 | 11.8 ± 2.6 µM | significantly inhibited | 106 ± 8.9 µM
